biological target: T1, CRTH2 receptor (Homo sapiens, UniProt Q9Y5Y4); experiment: PathHunter CHO-K1 CRTH2 β-arrestin assay (DiscoverX), antagonism of PGD2; type: cell-based; conditions: PathHunter CHO-K1 CRTH2 β-arrestin cells; compound 30 min, then EC80 agonist (PGD2) 90 min, 37° C.; chemiluminescent signal
T1 construct: host or cells: CHO-K1 (PathHunter β-arrestin line)
T1 sequence (Q9Y5Y4 1-395): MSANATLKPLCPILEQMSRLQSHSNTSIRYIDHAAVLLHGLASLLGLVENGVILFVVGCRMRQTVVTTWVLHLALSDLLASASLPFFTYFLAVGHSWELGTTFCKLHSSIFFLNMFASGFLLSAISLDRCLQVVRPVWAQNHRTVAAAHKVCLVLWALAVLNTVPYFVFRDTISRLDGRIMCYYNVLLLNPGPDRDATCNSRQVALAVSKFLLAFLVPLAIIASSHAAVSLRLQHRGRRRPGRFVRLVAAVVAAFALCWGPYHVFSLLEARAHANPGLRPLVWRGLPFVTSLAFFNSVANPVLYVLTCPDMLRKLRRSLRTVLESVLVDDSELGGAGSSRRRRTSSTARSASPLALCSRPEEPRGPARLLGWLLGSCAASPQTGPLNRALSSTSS
Method: DiscoverX Corporation in the U.S was entrusted to complete this experiment by β-arrestin assay. The experimental method and results were listed below: PathHunter® CHO-K1 CRTH2 β-arrestin cells (DiscoverX, catalogue number 93-0291C2) grew under standard conditions, and were inoculated into a white-wall 384-well microplate at a density of 5,000 cells/well. 20 μL of Cell Plating Reagent 1 was used in each well. Before the test, the cells were incubated overnight at 37° C./5% CO2. A test compound was serially diluted in DMSO with a dilution factor of 3-fold to give 8 concentrations of the test compound. Shortly before the test, the serially diluted test compound was further diluted with the test buffer to 5 times of the test concentration. 5 μL of the further diluted test compound was added to the cells, and the cells were incubated for 30 min at 37° C. The concentration of the solvent was 1%. 5 μL of 6× EC80 agonist (PGD2) buffer was added to the cells, and the cells were incubated for 90 min at 37° C. Measured signals were generated by one-time addition of 15 μL (50% v/v) of PathHunter detection mixture reagent and subsequent one-hour incubation. The microplate was read through the chemiluminescent signals of PerkinElmer Envision™ reader. Biological activity of the test compound was analyzed by CBIS data analysis suite (ChemInnovation, CA), and was denoted as IC50 value.

| SMILES | IC50 [nM] |
| --- | --- |
| CS(=O)(=O)c1ccc(Cc2c3n(c4ccccc24)CC(C(=O)O)CC3)c(C(F)(F)F)c1 (single isomer, unassigned) [Example 16 peak1] | > 1000 |
| CS(=O)(=O)c1ccc(Cc2c3n(c4ccccc24)CC(C(=O)O)CC3)c(C(F)(F)F)c1 (single isomer, unassigned) [Example 16 peak2] | < 100 |
| CS(=O)(=O)c1ccc(Cc2c3n(c4ccc(Cl)cc24)CC(C(=O)O)CC3)c(C(F)(F)F)c1 (single isomer, unassigned) [Example 22 peak1] | < 100 |
| CS(=O)(=O)c1ccc(Cc2c3n(c4ccc(Cl)cc24)CC(C(=O)O)CC3)c(C(F)(F)F)c1 (single isomer, unassigned) [Example 22 peak2] | > 1000 |
| CS(=O)(=O)c1ccc(Cc2c3n(c4ccc(F)cc24)CC(C(=O)O)CC3)c(C(F)(F)F)c1 (single isomer, unassigned) [Example 25 peak1] | 100 to 1000 |
| CS(=O)(=O)c1ccc(Cc2c3n(c4ccc(F)cc24)CC(C(=O)O)CC3)c(C(F)(F)F)c1 (single isomer, unassigned) [Example 25 peak2] | < 100 |
| CS(=O)(=O)c1ccc(Cc2c3n(c4ccccc24)C(C(=O)O)CCC3)cc1 (stereo not shown) [Example 1] | > 1000 |
| O=C(O)C1CCCc2c(Cc3cccnc3S(=O)(=O)c3ccccc3)c3ccccc3n21 (stereo not shown) [Example 2] | 100 to 1000 |
| CS(=O)(=O)c1ccc(Cc2c3n(c4ccccc24)C(C(=O)O)CCC3)c(C(F)(F)F)c1 (stereo not shown) [Example 6] | 100 to 1000 |
| CS(=O)(=O)c1ccc(Cc2c3n(c4ccccc24)C(CC(=O)O)CCC3)cc1 (stereo not shown) [Example 7] | > 1000 |
| CS(=O)(=O)c1ccc(Cc2c3n(c4ccccc24)C(CC(=O)O)CCC3)c(C(F)(F)F)c1 (stereo not shown) [Example 8] | > 1000 |
| CS(=O)(=O)c1ccc(Cc2c3n(c4ccccc24)CC(CC(=O)O)CC3)cc1 (stereo not shown) [Example 9] | > 1000 |
| O=C(O)CC1CCc2c(Cc3ccc4ccccc4n3)c3ccccc3n2C1 (stereo not shown) [Example 10] | > 1000 |
| O=C(O)CC1CCc2c(Cc3cccnc3S(=O)(=O)c3ccccc3)c3ccccc3n2C1 (stereo not shown) [Example 11] | > 1000 |
| CS(=O)(=O)c1ccc(Cc2c3n(c4ccccc24)CC(CC(=O)O)CC3)c(C(F)(F)F)c1 (stereo not shown) [Example 15] | > 1000 |
| CS(=O)(=O)c1ccc(Cc2c3n(c4ccccc24)CC(C(=O)O)CC3)c(C(F)(F)F)c1 (stereo not shown) [Example 16] | < 100 |
| O=C(O)C1CCc2c(Cc3cccnc3S(=O)(=O)c3ccc(Cl)cc3)c3ccccc3n2C1 (stereo not shown) [Example 17] | 100 to 1000 |
| CC1(C(=O)O)CCc2c(Cc3ccc(S(C)(=O)=O)cc3C(F)(F)F)c3ccccc3n2C1 (stereo not shown) [Example 18] | > 1000 |
| CC1(C(=O)O)CCc2c(Cc3ccc(C(F)(F)F)nc3)c3ccccc3n2C1 (stereo not shown) [Example 20] | > 1000 |
| CC1(C(=O)O)CCc2c(Cc3ccc(S(C)(=O)=O)cc3F)c3ccccc3n2C1 (stereo not shown) [Example 21] | > 1000 |
| CS(=O)(=O)c1ccc(Cc2c3n(c4ccc(Cl)cc24)CC(C(=O)O)CC3)c(C(F)(F)F)c1 (stereo not shown) [Example 22] | < 100 |
| CS(=O)(=O)c1ccc(Cc2c3n(c4ccc(Cl)cc24)CC(C(=O)O)CC3)c(F)c1 (stereo not shown) [Example 23] | 100 to 1000 |

| SMILES | IC50 [nM] |
| --- | --- |
| O=C(O)C1CCc2c(Cc3ccc4c(c3)CCS4(=O)=O)c3cc(Cl)ccc3n2C1 (stereo not shown) [Example 24] | > 1000 |
| CS(=O)(=O)c1ccc(Cc2c3n(c4ccc(F)cc24)CC(C(=O)O)CC3)c(C(F)(F)F)c1 (stereo not shown) [Example 25] | < 100 |
| CS(=O)(=O)c1ccc(Cc2c3n(c4ccc(F)cc24)CC(C(=O)O)CC3)c(F)c1 (stereo not shown) [Example 26] | 100 to 1000 |
| O=C(O)C1CCc2c(Cc3ccc4ccccc4n3)c3cc(F)ccc3n2C1 (stereo not shown) [Example 27] | > 1000 |
| O=C(O)C1CCc2c(Cc3ccc4c(c3)CCS4(=O)=O)c3cc(F)ccc3n2C1 (stereo not shown) [Example 28] | > 1000 |
| CS(=O)(=O)c1ccc(Cc2c3ccccc3n3cc(C(=O)O)ncc23)cc1 [Example 29] | > 1000 |
| CS(=O)(=O)c1ccc(Cc2c3ccccc3n3cc(C(=O)O)ncc23)cn1 [Example 30] | > 1000 |
| CS(=O)(=O)c1ccc(Cc2c3ccccc3n3cc(C(=O)O)ncc23)c(C(F)(F)F)c1 [Example 31] | > 1000 |
| CS(=O)(=O)c1ccc(Cc2c3n(c4ccccc24)CC(C(=O)O)C3)c(C(F)(F)F)c1 (stereo not shown) [Example 32] | 100 to 1000 |
| O=C(O)C1CCc2c(Cc3ccc4c(c3)C(F)C(F)(F)S4(=O)=O)c3cc(F)ccc3n2C1 (stereo not shown) [Example 33] | > 1000 |
| COc1ccc2c(c1)c(Cc1ccc(S(C)(=O)=O)cc1C(F)(F)F)c1n2CC(C(=O)O)CC1 (stereo not shown) [Example 34] | < 100 |
| CS(=O)(=O)c1ccc(Cc2c3n(c4ccc(OC(F)F)cc24)CC(C(=O)O)CC3)c(C(F)(F)F)c1 (stereo not shown) [Example 35] | < 100 |
| O=C(O)C1CCc2c(Cc3cc4c(cc3C(F)(F)F)S(=O)(=O)CC4)c3cc(F)ccc3n2C1 (stereo not shown) [Example 36] | > 1000 |
| O=C(O)C1CCc2c(Cc3cc4c(cc3C(F)(F)F)S(=O)(=O)CC4)c3cc(Cl)ccc3n2C1 (stereo not shown) [Example 37] | > 1000 |
| O=C(O)C1CCc2c(Cc3cccc4c3CCS4(=O)=O)c3cc(F)ccc3n2C1 (stereo not shown) [Example 38] | > 1000 |
| CS(=O)(=O)c1ccc(Cc2c3n(c4ccccc24)CC(C(=O)O)CC3)nc1 (stereo not shown) [Example 39] | > 1000 |
| COc1cc(C(F)(F)F)c(Cc2c3n(c4ccccc24)CC(C(=O)O)CC3)cn1 (stereo not shown) [Example 40] | > 1000 |
| CS(=O)(=O)c1ccc(Cc2c3n(c4ccccc24)CC(C(=O)O)CC3)cn1 (stereo not shown) [Example 41] | > 1000 |
| CS(=O)(=O)c1ccc(Cc2c3n(c4ncccc24)CC(C(=O)O)CC3)c(C(F)(F)F)c1 (stereo not shown) [Example 42] | > 1000 |
| O=C(O)C1CCc2c(Cc3ccc4c(c3)C(F)(F)CCS4(=O)=O)c3cc(F)ccc3n2C1 (stereo not shown) [Example 43] | > 1000 |
| O=C(O)C1CCc2c(Cc3ccc4c(c3)S(=O)(=O)CC4)c3cc(F)ccc3n2C1 (stereo not shown) [Example 44] | > 1000 |

From patent publication US11524958B2, “Tricyclic compound as CRTH2 inhibitor” (CHIA TAI TIANQING PHARMACEUTICAL GROUP CO., LTD., priority 2016, dated 2022)
